Test results as given in ChEMBL document CHEMBL4229553, “Design, synthesis and in vitro study of densely functionalized oxindoles as potent α-glucosidase inhibitors” (Bioorg Med Chem, 2018).
Values belong to the compound of their own block, whether it stands above or below them.

What was measured:
[1] = Inhibition of yeast alpha-glucosidase using 4-nitrophenyl-alpha-D-glucopyranoside as substrate incubated for 15 mins by spectrophotometric method; parameters: species or system Saccharomyces cerevisiae
BHK-21 = test: Cytotoxicity against BHK21 cells; type: cell-based, Mesocricetus auratus; conditions: hamster
yeast alpha-glucosidase = test: Ratio of IC50 for BHK21 cells to IC50 for yeast alpha-glucosidase; type: toxicity; conditions: hamster, read-out: Ratio IC50
Alpha glucosidase = Alpha glucosidase (Homo sapiens, UniProt O43451+P10253+P14410+Q2M2H8); test: Inhibition of alpha-glucosidase (unknown origin); type: protein assay
Saccharomyces cerevisiae [2] = test: Competitive inhibition of yeast alpha-glucosidase assessed as apparent Km for substrate at 2 uM using p-nitrophenyl-alpha-D-glucopyranoside as substrate incubated for 30 mins by Lineweaver-Burk plot method
Saccharomyces cerevisiae [3] = test: Competitive inhibition of yeast alpha-glucosidase assessed as apparent Km for substrate at 4 uM using p-nitrophenyl-alpha-D-glucopyranoside as substrate incubated for 30 mins by Lineweaver-Burk plot method
Saccharomyces cerevisiae [4] = test: Competitive inhibition of yeast alpha-glucosidase assessed as apparent Km for substrate at 6 uM using p-nitrophenyl-alpha-D-glucopyranoside as substrate incubated for 30 mins by Lineweaver-Burk plot method
Saccharomyces cerevisiae [5] = test: Competitive inhibition of yeast alpha-glucosidase assessed as apparent Km for substrate at 8 uM using p-nitrophenyl-alpha-D-glucopyranoside as substrate incubated for 30 mins by Lineweaver-Burk plot method
Saccharomyces cerevisiae [6] = test: Competitive inhibition of yeast alpha-glucosidase assessed as apparent Km for substrate at 10 uM using p-nitrophenyl-alpha-D-glucopyranoside as substrate incubated for 30 mins by Lineweaver-Burk plot method
Saccharomyces cerevisiae [7] = test: Competitive inhibition of yeast alpha-glucosidase assessed as Vmax for substrate at 2 uM using p-nitrophenyl-alpha-D-glucopyranoside as substrate incubated for 30 mins by Lineweaver-Burk plot method
Saccharomyces cerevisiae [8] = test: Competitive inhibition of yeast alpha-glucosidase assessed as Vmax for substrate at 4 uM using p-nitrophenyl-alpha-D-glucopyranoside as substrate incubated for 30 mins by Lineweaver-Burk plot method
Saccharomyces cerevisiae [9] = test: Competitive inhibition of yeast alpha-glucosidase assessed as Vmax for substrate at 6 uM using p-nitrophenyl-alpha-D-glucopyranoside as substrate incubated for 30 mins by Lineweaver-Burk plot method
Saccharomyces cerevisiae [10] = test: Competitive inhibition of yeast alpha-glucosidase assessed as Vmax for substrate at 8 uM using p-nitrophenyl-alpha-D-glucopyranoside as substrate incubated for 30 mins by Lineweaver-Burk plot method
Saccharomyces cerevisiae [11] = test: Competitive inhibition of yeast alpha-glucosidase assessed as Vmax for substrate at 10 uM using p-nitrophenyl-alpha-D-glucopyranoside as substrate incubated for 30 mins by Lineweaver-Burk plot method
[12] = Inhibition of yeast alpha-glucosidase using nitrophenol-D-glucopyranoside as substrate incubated for 15 mins; parameters: species or system Saccharomyces cerevisiae

IC50 [1]: 2.61 µM
Structure (SMILES): Cc1cc(C(=O)C2C(=O)Nc3ccccc32)c(C(=O)N2CCCC2)c(=O)[nH]1 (stereo not given)
Activity (BHK-21): Non-Toxic
selectivity ratio (yeast alpha-glucosidase): 100

IC50 [1]: 42.5 µM
Structure (SMILES): Cc1cc2c(c(=O)[nH]1)C(=O)OC2C1(O)C(=O)N(Cc2ccccc2)c2ccc(Br)cc21 (stereo not given)

IC50 [1]: 10.2 µM
Structure (SMILES): Cc1cc(C(=O)C2C(=O)N(C)c3ccccc32)c(C(=O)N2CCCCC2)c(=O)[nH]1 (stereo not given)

IC50 [1]: 2.03 µM
Structure (SMILES): Cc1cc(/C(O)=C2/C(=O)Nc3ccc(Br)cc32)c(C(=O)N2CCCCC2)c(=O)[nH]1
Activity (BHK-21): Non-Toxic
selectivity ratio (yeast alpha-glucosidase): 100

IC50 [1]: 4.56 µM
Structure (SMILES): Cc1cc(C(=O)C2C(=O)Nc3ccc([N+](=O)[O-])cc32)c(C(=O)N2CCCCC2)c(=O)[nH]1 (stereo not given)

IC50 [1]: 2.67 µM
Structure (SMILES): Cc1cc(C(=O)C2C(=O)Nc3ccccc32)c(C(=O)N2CCCCC2)c(=O)[nH]1 (stereo not given)
Activity (BHK-21): Non-Toxic
selectivity ratio (yeast alpha-glucosidase): 100

IC50 [1]: 0.646 µM
Km (Saccharomyces cerevisiae [2]): 1.64 µM
Km (Saccharomyces cerevisiae [3]): 1.79 µM
Km (Saccharomyces cerevisiae [4]): 1.8 µM
Km (Saccharomyces cerevisiae [5]): 2.54 µM
Km (Saccharomyces cerevisiae [6]): 2.92 µM
Vmax (Saccharomyces cerevisiae [7]): 41.6 µM/min
Vmax (Saccharomyces cerevisiae [8]): 40 µM/min
Vmax (Saccharomyces cerevisiae [9]): 40 µM/min
Vmax (Saccharomyces cerevisiae [10]): 41.6 µM/min
Vmax (Saccharomyces cerevisiae [11]): 40 µM/min
Structure (SMILES): Cc1cc(C(=O)C2C(=O)Nc3ccc(F)cc32)c(C(=O)N2CCCCC2)c(=O)[nH]1 (stereo not given)
Activity (BHK-21): Non-Toxic
selectivity ratio (yeast alpha-glucosidase): 100

IC50 [1]: 10 µM
Structure (SMILES): Cc1cc(C(=O)C2C(=O)N(C)c3ccc(F)cc32)c(C(=O)N2CCCCC2)c(=O)[nH]1 (stereo not given)

IC50 [1]: 8.21 µM
Structure (SMILES): Cc1cc(C(=O)C2C(=O)N(Cc3ccccc3)c3ccc(F)cc32)c(C(=O)N2CCCCC2)c(=O)[nH]1 (stereo not given)

The next lines start with the compound.

Structure (SMILES): C[C@H]1O[C@H](O[C@H]2[C@H](O)[C@@H](O)[C@@H](O[C@H]3[C@H](O)[C@@H](O)C(O)O[C@@H]3CO)O[C@@H]2CO)[C@H](O)[C@@H](O)[C@@H]1N[C@H]1C=C(CO)[C@@H](O)[C@H](O)[C@H]1O (stereo not given in full) [ACARBOSE]
IC50 [1]: 4.02 µM

Structure (SMILES): Cc1cc2c(c(=O)[nH]1)C(=O)O/C2=C1\C(=O)Nc2ccc(Br)cc21
IC50 [1]: 33 µM

Structure (SMILES): Cc1cc2c(c(=O)[nH]1)C(=O)OC2C1(O)C(=O)N(C)c2ccccc21 (stereo not given)
IC50 [1]: 27.6 µM

Structure (SMILES): Cc1cc2c(c(=O)[nH]1)C(=O)OC2C1(O)C(=O)N(C)c2ccc(Br)cc21 (stereo not given)
IC50 [1]: 36.1 µM

Structure (SMILES): Nc1ccn(C2OC(CO)[C@@H](O)[C@H]2O)c(=O)n1 (stereo not given in full)
IC50 (Alpha glucosidase): 2.5 µM

Structure (SMILES): CCC1NC(CC)C(O)C(O)C1O (stereo not given)
IC50 (Alpha glucosidase): 10 µM

Structure (SMILES): Cc1cc2c(c(=O)[nH]1)C(=O)O/C2=C1\C(=O)Nc2ccccc21
IC50 [1]: 47.2 µM

Structure (SMILES): Cc1cc(/C(O)=C2/C(=O)N(C)c3ccc(Br)cc32)c(C(=O)N2CCCCC2)c(=O)[nH]1
IC50 [1]: 6.41 µM

Structure (SMILES): Cc1cc(C(=O)C2C(=O)N(Cc3ccccc3)c3ccccc32)c(C(=O)N2CCCCC2)c(=O)[nH]1 (stereo not given)
IC50 [1]: 3.01 µM

Structure (SMILES): Cc1cc(C(=O)C2C(=O)N(Cc3ccccc3)c3ccc(Br)cc32)c(C(=O)N2CCCCC2)c(=O)[nH]1 (stereo not given)
Activity (BHK-21): Non-Toxic
IC50 [1]: 2.21 µM
selectivity ratio (yeast alpha-glucosidase): 100

Structure (SMILES): Cc1cc2c(c(=O)[nH]1)C(=O)O/C2=C/c1cc(Br)cs1
IC50 [12]: 0.24 µM
